pIC50: −log10 of the molar value. Structures can show the parent of a compound that is named as a salt.
Target: kinase domain of IRE1 alpha (His-tagged kinase dead construct KR, AA G547-L977, D688N) (Homo sapiens (Human), UniProt O75460, D688N)
Assay: IRE1α TR-FRET competition binding assay
Conditions: competition with Kinase Tracer 236, 0.1 μM; one hour at room temperature
Method: To determine the affinity of compound binding to the kinase domain of IRE1 alpha, a Time Resolved Fluorescence Resonance Energy Transfer (TR-FRET) competition assay was used. A His-tagged IRE1 alpha kinase dead construct containing the kinase and RNase domains (KR, AA G547-L977, D688N) was expressed in Sf9 insect cells. The purified protein (final concentration 0.006 μM micromolar) was pre-incubated with anti-His Europium labeled antibody (Life Technologies PV5596, final concentration 0.002 μM micromolar) for one hour at 4° C. in 1X TR-FRET Assay Buffer (50 mM HEPES, pH 7.5.10 mM MgCl2, 0.083 mM Brij 35, 1 mM DTT, and 0.1% bovine gamma globulin) prior to addition to test compounds. A fluorescent labeled probe based on an ATP competitive inhibitor (Kinase Tracer 236, Life Technologies PV5592) is added to a final concentration of 0.1 μM (micromolar). Reactions were carried out for one hour at room temperature in a final volume of 20 μL (microliter) in 384 well white ProxiPlates (Perkin Elmer 6008289). Binding of the tracer to the IRE1 protein alpha was detected in an Envision instrument (PerkinElmer) equipped with a TRF laser option and a LANCE/Delfia Dual/Bias D400/D630 mirror (Ex 347 nm, 1st Em 665 nm, 2nd Em 615 nm).
Exemplary compounds in Table A1 were tested in the IRE1α binding assays.

Chain of kinase domain of IRE1 alpha (His-tagged kinase dead construct KR, AA G547-L977, D688N) (O75460 547-977 D688N): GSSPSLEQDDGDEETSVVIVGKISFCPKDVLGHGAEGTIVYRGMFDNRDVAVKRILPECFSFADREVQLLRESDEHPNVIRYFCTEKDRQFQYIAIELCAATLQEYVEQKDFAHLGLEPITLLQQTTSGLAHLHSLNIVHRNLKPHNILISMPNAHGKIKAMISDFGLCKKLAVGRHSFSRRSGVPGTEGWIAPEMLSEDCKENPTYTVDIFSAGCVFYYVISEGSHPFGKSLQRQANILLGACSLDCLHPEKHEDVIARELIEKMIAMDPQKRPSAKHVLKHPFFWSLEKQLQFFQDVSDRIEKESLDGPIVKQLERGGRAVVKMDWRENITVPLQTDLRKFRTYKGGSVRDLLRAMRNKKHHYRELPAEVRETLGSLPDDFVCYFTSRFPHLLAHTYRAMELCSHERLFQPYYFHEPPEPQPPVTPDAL

SMILES	pIC50
CC(C)(C)CCS(=O)(=O)Nc1ccc(Oc2ncccc2-c2ccnc(N[C@H]3CCCNC3)n2)c(F)c1F [Compound 226, (S)-N-(2,3-difluoro-4-((3-(2-(piperidin-3-ylamino)pyrimidin-4-yl)pyridin-2-yl)oxy)phenyl)-3,3-dimethylbutane-1-sulfonamide]	7.74
Cn1cc(S(=O)(=O)Nc2ccc(Oc3ncccc3-c3ccnc(N[C@H]4CCCNC4)n3)c(F)c2F)cn1 [Compound 222, (S)-N-(2,3-difluoro-4-((3-(2-(piperidin-3-ylamino)pyrimidin-4-yl)pyridin-2-yl)oxy)phenyl)-1-methyl-1H-pyrazole-4-sulfonamide]	6.62
CCCS(=O)(=O)Nc1cc(F)c(Oc2ncccc2-c2ccnc(N[C@H]3CC[C@H](N)CC3)n2)c(F)c1 [Compound 122, N-(4-((3-(2-(((1r,4r)-4-aminocyclohexyl)amino)pyrimidin-4-yl)pyridin-2-yl)oxy)-3,5-difluorophenyl)propane-1-sulfonamide hydrochloride]	7.70
Cc1cc(NS(=O)(=O)C2CCCC2)cc(F)c1Oc1ncccc1-c1ccnc(N[C@H]2CCCNC2)n1 [Compound 116, (S)-N-(3-fluoro-5-methyl-4-((3-(2-(piperidin-3-ylamino)pyrimidin-4-yl)pyridin-2-yl)oxy)phenyl)cyclopentanesulfonamide hydrochloride]	7.64

Second part, the molecule after the results:

pIC50	SMILES
8.96	CCN(C)S(=O)(=O)Nc1c(F)cc(Oc2ncccc2-c2ccnc(N[C@@H]3CNC[C@@H](F)C3)n2)c(F)c1F [Compound 269, 4-(2-(4-((Ethyl(methyl)sulfamoyl)amino)-2,3,5-trifluoro-phenoxy)-3-pyridyl)-2-(((3S,5S)-5-fluoro-3-piperidyl)amino)pyrimidine]
9.57	C[C@@]1(F)CNC[C@@H](Nc2nccc(-c3cccnc3Oc3cc(F)c(NS(=O)(=O)Cc4c(F)cccc4F)c(F)c3F)n2)C1 [Compound 282, 1-(2,6-Difluorophenyl)-N-(2,3,6-trifluoro-4-((3-(2-(((3S,5S)-5-fluoro-5-methylpiperidin-3-yl)amino)pyrimidin-4-yl)pyridin-2-yl)oxy)phenyl)methanesulfonamide]
9.70	CC(F)C1CNCC(Nc2nccc(-c3cccnc3Oc3cc(F)c(NS(=O)(=O)Cc4ccccc4)c(F)c3F)n2)C1 (single isomer, unassigned) [Compound 348, 1-Phenyl-N-(2,3,6-trifluoro-4-((3-(2-((5-(1-fluoroethyl)piperidin-3-yl)amino)pyrimidin-4-yl)pyridin-2-yl)oxy)phenyl)methanesulfonamide]
8.55	C[C@@]1(F)CNC[C@@H](Nc2nccc(-c3cccnc3Oc3cc(F)c(NS(=O)(=O)CC4CC(F)(F)C4)c(F)c3F)n2)C1 [Compound 251, 1-(3,3-Difluorocyclobutyl)-N-(2,3,6-trifluoro-4-((3-(2-(((3S,5S)-5-fluoro-5-methylpiperidin-3-yl)amino)pyrimidin-4-yl)pyridin-2-yl)oxy)phenyl)methanesulfonamide]
8.14	O=S(=O)(Cc1cccc(F)c1)Nc1ccc(Oc2ncccc2-c2ccnc(N[C@H]3CCCNC3)n2)c(F)c1F [Compound 231, (S)-N-(2,3-difluoro-4-((3-(2-(piperidin-3-ylamino)pyrimidin-4-yl)pyridin-2-yl)oxy)phenyl)-1-(3-fluorophenyl)methanesulfonamide]
8.36	C[C@@]1(F)CNC[C@@H](Nc2nccc(-c3cccnc3Oc3cc(F)c(NS(=O)(=O)CC4CCC4)c(F)c3F)n2)C1 [Compound 202, 1-cyclobutyl-N-(2,3,6-trifluoro-4-((3-(2-(((3S,5S)-5-fluoro-5-methylpiperidin-3-yl)amino)pyrimidin-4-yl)pyridin-2-yl)oxy)phenyl)methanesulfonamide]
9.68	Cc1ccc(CS(=O)(=O)Nc2c(C)cc(Oc3ncccc3-c3ccnc(N[C@@H]4CNC[C@@](C)(F)C4)n3)c(F)c2F)cc1 [Compound 305, N-(2,3-Difluoro-4-((3-(2-(((3S,5S)-5-fluoro-5-methylpiperidin-3-yl)amino)pyrimidin-4-yl)pyridin-2-yl)oxy)-6-methylphenyl)-1-(p-tolyl)methanesulfonamide]

Source: patent US12071425B2 (Genentech, Inc., priority 2018, dated 2024)
